Results: paper PMC11904221 (EMBO Molecular Medicine, 2025)
Where “and” joins values, the source holds several entries; their conditions need not be identical. Equal values may be shown once.

Tests used:
HUVEC [1] = assay: HUVEC proliferation with VEGF, IncuCyte confluence; format: cell-based, human
Text: Red arrows indicate the direction of vessel formation. […] All data are representative of three independent experiments. […] The two Furin cleavage sites are shown. […] (S–U) Plasmon waveguide resonance (PWR). […] Source data are available online for this figure.

HUVEC [2] = assay: VEGF-induced migration of HUVECs; format: cell-based, human; conditions: VEGF 30 ng/ml, apelin-dm 100 nM, individual values; control column 95-118
ERK = conditions: VEGF 30ng/mL, apelin-dm 100 nM, individual values n = 3
[3] = tested on: aortic ring microvessel sprouting; assay: Aortic ring assay; parameters: species or system mouse; conditions: 100 nM, VEGF 30 ng/ml
Text: Angiogenesis is a complex intercellular process involving the organization of various cells.

HCT116 tumors = assay: Tumor blood flow, laser Doppler, HCT116 tumors; format: in vivo, mouse; conditions: Bevacizumab 5 (mg/Kg), individual values
Text: (§1) Tumor growth, apoptosis, proliferation, and/or the angiogenic index of the developed tumors were first evaluated.
(§2) (A) Scheme and workflow of apelin-dm preclinic studies. […] (B–D) Error bars indicate s.e.m. center values indicate mean (Mann–Whitney U test). […] The percentage of relative staining intensity corresponding to CD31, Ki67, and BIM expression in CT-26 and MC-38 tumors of treated mice are shown in (I–N). Scale bar, 100 µm. Data represent mean ± s.e.m. of 3–4 independent experiments. P values were calculated with the Student t test in GraphPad. […] Quantification of tumor area (P) and vascularized area (Q) relative to control untreated CAMs (n = 3 CAM per group) assigned 100%. Data represent mean ± s.e.m. P values were calculated with the Student t test in GraphPad. […] (S, T) The average blood flow expressed in % relative to blood flow measured in […] (S) and MDA-MB231 (T) developed tumors. Data represent mean ± s.e.m. of 3–4 independent experiments. P values were calculated with the Student t test in GraphPad. Source data are available online for this figure.
(§3) Additional experiments involved injecting 1 × 10^6 control CT-26/MC-38/MDA-MB231 cells into BALB/c, C57BL/6, or nude mice, respectively. […] LASER Doppler imaging assessed total blood flow, with FlowR® Hemodynamics visualization used for analysis. Results were expressed as % relative to pre-treatment tumor blood flow.

MDA-MB-231 tumors = assay: Tumor blood flow, laser Doppler, MDA-MB-231 tumors; format: in vivo, mouse; conditions: Bevacizumab 5 (mg/Kg), individual values
Text: as §1, §2, §3

[4] = in vitro and in CAM assays; ref Ljoki et al, 2022; Ademi et al, 2021; cited from earlier work
HUVEC [5] = assay: Tube-like formation assay; conditions: read-out: EC50 (reduction of 50% of junction number); HUVEC on Geltrex, 18h treatment, 5 nM to 5 μM, GraphPad Prism

Row | Substance | HUVEC confluence (HUVEC [1]; 0 h, VEGF 30 ng/ml or apelin-dm 100 nM, means, n = 6 wells) | HUVEC confluence (HUVEC [1]; 24 h) | HUVEC confluence (HUVEC [1]; 48 h) | HUVEC confluence (HUVEC [1]; 72 h) | HUVEC confluence (HUVEC [1]; 96 h) | HUVEC confluence (HUVEC [1]; 120 h) | HUVEC migration (HUVEC [2]) | ERK phosphorylation relative to control untreated HUVEC assigned 100% (ERK) | VEGF-induced aortic ring sprouting [3] | tumor blood flow, % relative (HCT116 tumors) | tumor blood flow, % relative (MDA-MB-231 tumors) | concentration with inhibitory effects [4] | EC50 (HUVEC [5])
1 | VEGF | 10 | 19 | 33 | 55 | 75 | 82 | 160 and 250 and 188 and 208 and 299 and 320 and 199 | 144.293 and 157.045 and 122.733 | – | – | – | – | –
2 | Bevacizumab | – | – | – | – | – | – | – | – | apelin-dm was comparable in effect to Bevacizumab | 86 and 65 and 70 and 63 and 59 | 82 and 75 and 69 and 51 | around 100 nM | 83 nM and 130 nM
